Data reported in PubChem BioAssay AID2060897 (Molecular Pharmacology Branch, DTP, NCI, 2025).

Test system: 966289-007-R4-J1-PDC complex spheroid viability
Assay: Anticancer human tumor 966289-007-R4-J1-PDC patient-derived pancreatic adenocarcinoma cell line growth inhibition [RAS]
Settings: for IC50: curve of first compound; for viability, T/C: stronger effect = lower value; active means viability on the fitted dose curve at most 10% of control; inactive means the rest
How it was run: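 Tumour cells grown as complex spheroids with HUVEC endothelial cells and mesenchymal stem cells, treated with RAS pathway inhibitor combinations. Each agent spans half-log steps from near clinical Cmax, or 10 microM where Cmax is unknown.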
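Further: spheroids exposed to agents for one week before readout.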
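Wherever viability, T/C is given: percent viability relative to DMSO vehicle control wells as 100%.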

O=C(c1ccc(F)c(F)c1Nc1ccc(I)cc1F)N1CC(O)([C@@H]2CCCCN2)C1 + C#Cc1c(F)ccc2cc(O)cc(-c3ncc4c(N5CC6CCC(C5)N6)nc(OCC56CCCN5CC(F)C6)nc4c3F)c12
376 nM: IC50 (second compound 0.1 µM)
395 nM: IC50 (second compound 0.316 µM)
409 nM: IC50 (second compound 1 µM)
397 nM: IC50 (second compound 0.0316 µM)
522 nM: IC50 (second compound 10 µM)
404 nM: IC50 (second compound 3.16 µM)
inactive: viability, T/C (second compound 0.0316 µM, first compound 0.00316 µM) 87% | viability, T/C (second compound 0.0316 µM, first compound 0.01 µM) 68.4% | viability, T/C (second compound 0.0316 µM, first compound 0.0316 µM) 78% | viability, T/C (second compound 0.0316 µM, first compound 0.1 µM) 66.3% | viability, T/C (second compound 0.0316 µM, first compound 0.316 µM) 55.5% | viability, T/C (second compound 0.0316 µM, first compound 1 µM) 31.8% | viability, T/C (second compound 0.1 µM, first compound 0.00316 µM) 96.2% | viability, T/C (second compound 0.1 µM, first compound 0.01 µM) 73.7% | viability, T/C (second compound 0.1 µM, first compound 0.0316 µM) 61.7% | viability, T/C (second compound 0.1 µM, first compound 0.1 µM) 66.3% | viability, T/C (second compound 0.1 µM, first compound 0.316 µM) 64.5% | viability, T/C (second compound 0.1 µM, first compound 1 µM) 33.3% | viability, T/C (second compound 0.316 µM, first compound 0.00316 µM) 76% | viability, T/C (second compound 0.316 µM, first compound 0.01 µM) 70.3% | viability, T/C (second compound 0.316 µM, first compound 0.0316 µM) 73% | viability, T/C (second compound 0.316 µM, first compound 0.1 µM) 60.8% | viability, T/C (second compound 0.316 µM, first compound 0.316 µM) 56.4% | viability, T/C (second compound 0.316 µM, first compound 1 µM) 33.3% | viability, T/C (second compound 1 µM, first compound 0.00316 µM) 74.5% | viability, T/C (second compound 1 µM, first compound 0.01 µM) 74.4% | viability, T/C (second compound 1 µM, first compound 0.0316 µM) 65% | viability, T/C (second compound 1 µM, first compound 0.1 µM) 65.2% | viability, T/C (second compound 1 µM, first compound 0.316 µM) 56.6% | viability, T/C (second compound 1 µM, first compound 1 µM) 32.8% | viability, T/C (second compound 3.16 µM, first compound 0.00316 µM) 78.6% | viability, T/C (second compound 3.16 µM, first compound 0.01 µM) 72.9% | viability, T/C (second compound 3.16 µM, first compound 0.0316 µM) 70.7% | viability, T/C (second compound 3.16 µM, first compound 0.1 µM) 64.4% | viability, T/C (second compound 3.16 µM, first compound 0.316 µM) 54.2% | viability, T/C (second compound 3.16 µM, first compound 1 µM) 36.3% | viability, T/C (second compound 10 µM, first compound 0.00316 µM) 77.7% | viability, T/C (second compound 10 µM, first compound 0.01 µM) 69.8% | viability, T/C (second compound 10 µM, first compound 0.0316 µM) 71.2% | viability, T/C (second compound 10 µM, first compound 0.1 µM) 66% | viability, T/C (second compound 10 µM, first compound 0.316 µM) 59.4% | viability, T/C (second compound 10 µM, first compound 1 µM) 39.3%

CCc1c2c(nc3ccc(O)cc13)-c1cc3c(c(=O)n1C2)COC(=O)[C@]3(O)CC + C=CC(=O)N1CCN(c2nc(OCC3CCCN3C)nc3c(F)c(-c4nc(N)cc(C)c4C(F)(F)F)c(Cl)cc23)C(C)C1
1.12 nM: IC50 (second compound 1 µM)
1.5 nM: IC50 (second compound 0.00316 µM)
1.22 nM: IC50 (second compound 0.1 µM)
inactive: viability, T/C (second compound 0.00316 µM, first compound 0.000949 µM) 82% | viability, T/C (second compound 0.01 µM, first compound 0.000949 µM) 72.8% | viability, T/C (second compound 0.0316 µM, first compound 0.000949 µM) 70.5% | viability, T/C (second compound 0.1 µM, first compound 0.000949 µM) 63.4% | viability, T/C (second compound 0.316 µM, first compound 0.000949 µM) 68.3% | viability, T/C (second compound 1 µM, first compound 0.000949 µM) 58.1%
1.31 nM: IC50 (second compound 0.316 µM)
1.34 nM: IC50 (second compound 0.0316 µM)
1.38 nM: IC50 (second compound 0.01 µM)
active: viability, T/C (second compound 0.00316 µM, first compound 0.003 µM) 1.8% | viability, T/C (second compound 0.00316 µM, first compound 0.00949 µM) 0.98% | viability, T/C (second compound 0.00316 µM, first compound 0.03 µM) 0.95% | viability, T/C (second compound 0.00316 µM, first compound 0.0949 µM) 0.87% | viability, T/C (second compound 0.00316 µM, first compound 0.3 µM) 0.85% | viability, T/C (second compound 0.01 µM, first compound 0.003 µM) 2.38% | viability, T/C (second compound 0.01 µM, first compound 0.00949 µM) 0.97% | viability, T/C (second compound 0.01 µM, first compound 0.03 µM) 1.12% | viability, T/C (second compound 0.01 µM, first compound 0.0949 µM) 0.92% | viability, T/C (second compound 0.01 µM, first compound 0.3 µM) 0.91% | viability, T/C (second compound 0.0316 µM, first compound 0.003 µM) 2.51% | viability, T/C (second compound 0.0316 µM, first compound 0.00949 µM) 1.14% | viability, T/C (second compound 0.0316 µM, first compound 0.03 µM) 0.91% | viability, T/C (second compound 0.0316 µM, first compound 0.0949 µM) 0.87% | viability, T/C (second compound 0.0316 µM, first compound 0.3 µM) 0.86% | viability, T/C (second compound 0.1 µM, first compound 0.003 µM) 2.05% | viability, T/C (second compound 0.1 µM, first compound 0.00949 µM) 1.09% | viability, T/C (second compound 0.1 µM, first compound 0.03 µM) 0.89% | viability, T/C (second compound 0.1 µM, first compound 0.0949 µM) 0.99% | viability, T/C (second compound 0.1 µM, first compound 0.3 µM) 0.86% | viability, T/C (second compound 0.316 µM, first compound 0.003 µM) 2.24% | viability, T/C (second compound 0.316 µM, first compound 0.00949 µM) 1.14% | viability, T/C (second compound 0.316 µM, first compound 0.03 µM) 1.03% | viability, T/C (second compound 0.316 µM, first compound 0.0949 µM) 0.87% | viability, T/C (second compound 0.316 µM, first compound 0.3 µM) 1.11% | viability, T/C (second compound 1 µM, first compound 0.003 µM) 1.43% | viability, T/C (second compound 1 µM, first compound 0.00949 µM) 1.03% | viability, T/C (second compound 1 µM, first compound 0.03 µM) 0.98% | viability, T/C (second compound 1 µM, first compound 0.0949 µM) 0.91% | viability, T/C (second compound 1 µM, first compound 0.3 µM) 0.97%

CC(C)NCC(C(=O)N1CCN(c2ncnc3c2C(C)CC3O)CC1)c1ccc(Cl)cc1 (stereo unspecified) + CCn1c(-c2cccnc2C(C)OC)c2c3cc(ccc31)N1CCOC(CC(NC(=O)C(C(C)C)N(C)C(=O)C3(F)CCN(C(=O)C#CC(C)(C)N(C)C)CC3)C(=O)N3CCCC(N3)C(=O)OCC(C)(C)C2)C1
5110 nM: IC50 (second compound 0.00949 µM)
6640 nM: IC50 (second compound 0.0949 µM)
4850 nM: IC50 (second compound 0.003 µM)
2760 nM: IC50 (second compound 0.000949 µM)
5350 nM: IC50 (second compound 0.3 µM)
6160 nM: IC50 (second compound 0.03 µM)
inactive: viability, T/C (second compound 0.000949 µM, first compound 0.0316 µM) 99.4% | viability, T/C (second compound 0.000949 µM, first compound 0.1 µM) 94.4% | viability, T/C (second compound 0.000949 µM, first compound 0.316 µM) 117% | viability, T/C (second compound 0.000949 µM, first compound 1 µM) 85.7% | viability, T/C (second compound 0.000949 µM, first compound 3.16 µM) 46.3% | viability, T/C (second compound 0.000949 µM, first compound 10 µM) 28.5% | viability, T/C (second compound 0.003 µM, first compound 0.0316 µM) 99.2% | viability, T/C (second compound 0.003 µM, first compound 0.1 µM) 82.3% | viability, T/C (second compound 0.003 µM, first compound 0.316 µM) 98.9% | viability, T/C (second compound 0.003 µM, first compound 1 µM) 94.6% | viability, T/C (second compound 0.003 µM, first compound 3.16 µM) 62.2% | viability, T/C (second compound 0.003 µM, first compound 10 µM) 29.4% | viability, T/C (second compound 0.00949 µM, first compound 0.0316 µM) 70.3% | viability, T/C (second compound 0.00949 µM, first compound 0.1 µM) 89.2% | viability, T/C (second compound 0.00949 µM, first compound 0.316 µM) 97.2% | viability, T/C (second compound 0.00949 µM, first compound 1 µM) 114% | viability, T/C (second compound 0.00949 µM, first compound 3.16 µM) 62% | viability, T/C (second compound 0.00949 µM, first compound 10 µM) 33.2% | viability, T/C (second compound 0.03 µM, first compound 0.0316 µM) 57.3% | viability, T/C (second compound 0.03 µM, first compound 0.1 µM) 72.6% | viability, T/C (second compound 0.03 µM, first compound 0.316 µM) 103% | viability, T/C (second compound 0.03 µM, first compound 1 µM) 92.4% | viability, T/C (second compound 0.03 µM, first compound 3.16 µM) 62.3% | viability, T/C (second compound 0.03 µM, first compound 10 µM) 41.1% | viability, T/C (second compound 0.0949 µM, first compound 0.0316 µM) 63.9% | viability, T/C (second compound 0.0949 µM, first compound 0.1 µM) 94.5% | viability, T/C (second compound 0.0949 µM, first compound 0.316 µM) 126% | viability, T/C (second compound 0.0949 µM, first compound 1 µM) 90.8% | viability, T/C (second compound 0.0949 µM, first compound 3.16 µM) 75.6% | viability, T/C (second compound 0.0949 µM, first compound 10 µM) 35.9% | viability, T/C (second compound 0.3 µM, first compound 0.0316 µM) 92.5% | viability, T/C (second compound 0.3 µM, first compound 0.1 µM) 97% | viability, T/C (second compound 0.3 µM, first compound 0.316 µM) 107% | viability, T/C (second compound 0.3 µM, first compound 1 µM) 99.9% | viability, T/C (second compound 0.3 µM, first compound 3.16 µM) 58% | viability, T/C (second compound 0.3 µM, first compound 10 µM) 40.4%
